Where two headings read alike, the source gives them in different places.
Key:
[1] = Porcine-PK study of BuMA Supreme stent (blood, myocardium, coronary artery tissue); assay type: in vivo, Yucatan Miniature Swine
Protocol: Release of drug from the stent and local, regional, and systemic delivery of sirolimus/rapamycin was quantified by measuring the drug content in stented coronary artery segments. Drug remaining on the stent and found in tissue was measured at 1, 3, 7, 14, 21, 28, […], 90, and 150 day time points. Stents were implanted into Yucatan Miniature Swine pigs. The porcine and human arteries have correlatively similar anatomy and the porcine model is recommended for use in preclinical studies by the FDA, EMEA and Schwartz et al. Thirty-one Yucatan mini-swine were implanted in two of three coronary arteries: the left circumflex artery [LCx], left anterior descending artery [LAD] and right coronary artery [RCA] of each animal, when possible.
Pharmacokinetic analysis was performed for both Rabbit-PK (2014-002) and Porcine-PK (1792-318G) studies, using whole blood, target tissue, and non-target tissue concentration versus time data, using Phoenix WinNonlin (version 8.1) non-compartment analysis function (linear trapezoidal rule for AUC calculations). Nominal dose values and sampling times were used for calculations. Any concentration reported as BLQ (LLOQ<0.100 ng/mL) was set equal to zero. Time points were manually evaluated for the determination of lambda z (R2>0.75), the elimination rate constant, upon which half-life (t1/2) was based.
For the rabbit and porcine study, pharmacokinetic analyses included Cmax, Tmax, Tlast, AUC0-24, AUClast, t1/2, and MRTlast and is presented in Table 2. Below.

[2] = as above; assay type: in vivo, Yucatan Miniature Swine; details: for concentration at 60 days: Yucatan miniature swine, pig, coronary artery, stented segment, other: drug-eluting stent implanted in coronary arteries

concentration at 1 days ([1]; Yucatan miniature swine, pig, coronary artery, stented segment, other: drug-eluting stent implanted in coronary arteries, study day 1, BuMA Supreme stent, porcine, read-out: Arterial drug concentration): 1630 ± 239 ng/g
concentration at 3 days ([1]; Yucatan miniature swine, pig, coronary artery, stented segment, other: drug-eluting stent implanted in coronary arteries, study day 3, read-out: Arterial drug concentration): 2270 ± 735 ng/g
concentration at 7 days ([1]; Yucatan miniature swine, pig, coronary artery, stented segment, other: drug-eluting stent implanted in coronary arteries, study day 7, read-out: Arterial drug concentration): 2580 ± 1430 ng/g
concentration at 14 days ([1]; Yucatan miniature swine, pig, coronary artery, stented segment, other: drug-eluting stent implanted in coronary arteries, study day 14, read-out: Arterial drug concentration): 3700 ± 1710 ng/g
concentration at 21 days ([1]; Yucatan miniature swine, pig, coronary artery, stented segment, other: drug-eluting stent implanted in coronary arteries, study day 21, read-out: Arterial drug concentration): 9850 ± 4720 ng/g
concentration at 28 days ([1]; Yucatan miniature swine, pig, coronary artery, stented segment, other: drug-eluting stent implanted in coronary arteries, study day 28, read-out: Arterial drug concentration): 6780 ± 4140 ng/g
concentration at 90 days ([1]; Yucatan miniature swine, pig, coronary artery, stented segment, other: drug-eluting stent implanted in coronary arteries, study day 90, read-out: Arterial drug concentration): 451 ± 188 ng/g
concentration at 150 days ([1]; Yucatan miniature swine, pig, coronary artery, stented segment, other: drug-eluting stent implanted in coronary arteries, study day 150, read-out: Arterial drug concentration): 109 ± 12.1 ng/g
time at which maximum concentration of the drug in the artery occurred ([1]; after implantation, stented area): 21 days
maximum concentration of the drug in the artery (stented area) ([1]; average, 21 days after implantation, porcine coronary artery, BuMA Supreme stent): 9.85±4.72 μg/gm
drug concentration in artery segments proximal and distal to the stented segment, relative to the stented segment value ([1]; in vivo): 3-11%
concentration at 60 days ([2]; by 60 days, read-out: concentration of the drug in the artery (stented area)): 920 ± 200 ng/g
concentration at 60 days ([2]; study day 60, read-out: Arterial drug concentration): 922 ± 203 ng/g
samples with measurable drug levels in the artery ([2]; at 154 and 202 days): five of the twelve
Compound: CO[C@H]1C[C@@H]2CC[C@@H](C)[C@@](O)(O2)C(=O)C(=O)N2CCCC[C@H]2C(=O)O[C@H]([C@H](C)C[C@@H]2CC[C@@H](O)[C@H](OC)C2)CC(=O)[C@H](C)/C=C(\C)[C@@H](O)[C@@H](OC)C(=O)[C@H](C)C[C@H](C)/C=C/C=C/C=C/1C [Rapamycin, Sirolimus (rapamycin)]

Reference: patent US20250345190A1, “DRUG ELUTING STENT” (SINO MEDICAL SCIENCES TECHNOLOGY INC., priority 2020, published 2025)
